For 82 compounds, IC50 results are on record in the Kinase Knowledgebase extract (Sharma et al. 2016).

The term IC50 denotes the concentration that gives 50% inhibition. A low value points to greater potency.

This experiment deals with EGFR (UniProt P00533).
Sequence of EGFR (P00533 whole entry, looked up): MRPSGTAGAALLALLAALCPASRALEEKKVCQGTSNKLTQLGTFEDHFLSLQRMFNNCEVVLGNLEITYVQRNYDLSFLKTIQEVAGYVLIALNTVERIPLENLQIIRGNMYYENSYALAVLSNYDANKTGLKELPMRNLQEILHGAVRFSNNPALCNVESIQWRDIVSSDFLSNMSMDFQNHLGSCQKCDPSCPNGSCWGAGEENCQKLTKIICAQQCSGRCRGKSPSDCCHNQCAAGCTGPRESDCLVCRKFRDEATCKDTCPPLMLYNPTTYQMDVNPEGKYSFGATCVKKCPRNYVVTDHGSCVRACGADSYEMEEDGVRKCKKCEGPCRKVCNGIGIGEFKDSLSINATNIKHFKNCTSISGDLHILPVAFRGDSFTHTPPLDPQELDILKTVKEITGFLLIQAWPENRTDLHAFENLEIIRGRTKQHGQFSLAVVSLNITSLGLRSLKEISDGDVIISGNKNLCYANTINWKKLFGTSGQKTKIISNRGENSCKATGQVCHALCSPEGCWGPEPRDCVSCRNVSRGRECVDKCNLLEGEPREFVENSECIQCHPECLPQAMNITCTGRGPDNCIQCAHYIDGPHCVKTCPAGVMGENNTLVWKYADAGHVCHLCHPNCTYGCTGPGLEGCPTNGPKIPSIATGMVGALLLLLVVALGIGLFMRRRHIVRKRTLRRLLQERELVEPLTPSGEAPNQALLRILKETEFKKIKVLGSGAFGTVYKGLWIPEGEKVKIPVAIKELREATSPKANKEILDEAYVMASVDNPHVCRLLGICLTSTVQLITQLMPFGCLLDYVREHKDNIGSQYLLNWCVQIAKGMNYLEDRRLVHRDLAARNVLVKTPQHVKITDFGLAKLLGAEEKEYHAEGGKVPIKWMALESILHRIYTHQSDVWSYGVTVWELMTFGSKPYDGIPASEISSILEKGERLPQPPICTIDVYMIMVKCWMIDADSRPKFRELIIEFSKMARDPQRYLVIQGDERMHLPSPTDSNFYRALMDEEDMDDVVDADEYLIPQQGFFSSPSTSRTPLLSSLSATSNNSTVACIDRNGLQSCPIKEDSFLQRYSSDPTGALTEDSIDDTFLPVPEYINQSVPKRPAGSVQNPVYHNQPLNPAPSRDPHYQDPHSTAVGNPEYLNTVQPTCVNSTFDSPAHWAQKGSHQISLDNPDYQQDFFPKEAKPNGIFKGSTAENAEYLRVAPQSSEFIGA
As to `CCCCCCCN1CCOC(COc2cc3ncnc(Nc4ccc(Cl)c(Cl)c4)c3cc2OC)C1` (configuration not stated), the IC50 is under 0.05 µM.

For the compound `COc1cc2c(Nc3ccc(Cl)c(Cl)c3)ncnc2cc1OCc1csc([C@@H]2CCCN2C)n1`, the IC50 is under 0.05 µM. For `COc1cc2c(Nc3ccc(Cl)c(Cl)c3)ncnc2cc1OCc1nc(-c2ccc(O)c(C(N)=O)c2)cs1` the value was under 0.05 µM; for `COc1cc2c(Nc3ccc(Br)c(Cl)c3Cl)ncnc2cc1O[C@H]1CO[C@H]2[C@@H]1OC[C@@H]2OC`, under 0.05 µM. For `COc1cc2c(Nc3ccc(Br)cc3F)ncnc2cc1OCC1CCN(C(N)=NC#N)CC1` the value was under 0.05 µM; for `COc1cc2c(Nc3ccc(Cl)c(Cl)c3)ncnc2cc1OCCC1CN(C(=O)OC(C)(C)C)C(C)(C)CO1` (configuration not stated), under 0.05 µM; for `COc1cc2c(Nc3ccc(Cl)c(Cl)c3)ncnc2cc1OCC1CN(CC2CCCCC2)CCO1` (configuration not stated), under 0.05 µM. `COc1cc2c(Nc3ccc(Cl)cc3F)ncnc2cc1O[C@@H]1CO[C@@H]2[C@H]1OC[C@H]2F` gave an IC50 of under 0.05 µM. Under `COc1cc2c(Nc3ccc(Cl)c(Cl)c3)ncnc2cc1O[C@H]1CO[C@H]2[C@@H]1OC[C@@H]2OC` stands under 0.05 µM.

`COc1cc2c(Nc3ccc(Cl)c(Cl)c3)ncnc2cc1OCC1CN(C(=O)c2c(F)ccc(F)c2F)CCO1` (configuration not stated): the IC50 is under 0.05 µM. Under `COc1cc2c(Nc3cc(Cl)c(Cl)cc3F)ncnc2cc1O[C@H]1CO[C@H]2[C@@H]1OC[C@@H]2OC` stands under 0.05 µM; under `COc1cc2c(Nc3ccc(Cl)c(Cl)c3)ncnc2cc1OCc1csc(C2CCNCC2)n1`, under 0.05 µM; under `COc1cc2c(Nc3ccc(Cl)c(Br)c3)ncnc2cc1OCC1CN(C)CCO1` (configuration not stated), under 0.05 µM. Under `COc1cc2c(Nc3ccc(Cl)c(Cl)c3)ncnc2cc1OCc1nc(-c2ccc(C(C)(C)C)cc2)no1` stands 0.05 to 1 µM; under `COc1cc2c(Nc3ccc(Cl)c(Cl)c3)ncnc2cc1OCC1CN(CCF)CCO1` (configuration not stated), under 0.05 µM. Under `COCCN1CCCOC(COc2cc3ncnc(Nc4ccc(Cl)c(Cl)c4)c3cc2OC)C1` (configuration not stated) stands under 0.05 µM; under `COc1cc2c(Nc3ccc(Cl)c(C)c3)ncnc2cc1OCC1CN(C)CCO1` (configuration not stated), under 0.05 µM; under `CC(C)Oc1cc2c(Nc3ccc(Cl)c(Cl)c3)ncnc2cc1OCC1CN(C)CCO1` (configuration not stated), under 0.05 µM. In the case of `COc1cc2c(Nc3ccc(Cl)c(Cl)c3)ncnc2cc1OCc1nc(CN2CCOCC2)cs1`, the IC50 was under 0.05 µM. As to `COc1cc2c(Nc3ccc(Br)c(Cl)c3F)ncnc2cc1OC[C@H]1C[C@@H]2CN(C)C[C@@H]2C1`, the IC50 is under 0.05 µM. Compound `COc1cc2c(Nc3ccc(Cl)c(Cl)c3)ncnc2cc1OCC1CN(C(=O)c2c(C)noc2C)CCO1` (configuration not stated) gave an IC50 of under 0.05 µM. In turn, `COc1cc2c(Nc3ccc(Br)c(Cl)c3C)ncnc2cc1OCC1CN(C)CCO1` (configuration not stated) yielded an IC50 of under 0.05 µM. Under `COc1cc2c(Nc3ccc(Cl)c(Cl)c3)ncnc2cc1OCC1CN(C(=O)CCC(C)C)CCO1` (configuration not stated) stands under 0.05 µM. `COc1cc2c(Nc3ccc(Cl)c(Cl)c3)ncnc2cc1OCc1c(F)cccc1F` had an IC50 of under 0.05 µM. Under `COc1cc2c(Nc3ccc(C)c(Br)c3)ncnc2cc1OCC1CN(C)CCO1` (configuration not stated) stands under 0.05 µM; under `CCN1CCC[C@H]1c1noc(COc2cc3ncnc(Nc4ccc(Cl)c(Cl)c4)c3cc2OC)n1`, under 0.05 µM; under `COc1cc2c(Nc3cc(C(F)(F)F)ccc3Br)ncnc2cc1O[C@@H]1CO[C@@H]2[C@H]1OC[C@H]2F`, under 0.05 µM. As for `CCCCCC(=O)N1CCOC(COc2cc3ncnc(Nc4ccc(Cl)c(Cl)c4)c3cc2OC)C1` (configuration not stated), the IC50 was under 0.05 µM. For `COc1cc2c(Nc3ccc(Cl)c(Cl)c3)ncnc2cc1OCC1CN(C(=NC#N)N2CCCC2)CCO1` (configuration not stated) the value was under 0.05 µM; for `COc1cc2c(Nc3ccc(F)c(Cl)c3F)ncnc2cc1OCC1CN(C)C(C)(C)CO1` (configuration not stated), under 0.05 µM; for `COc1cc2c(Nc3ccc(F)c(Cl)c3F)ncnc2cc1OC[C@@H]1CN2CCOC[C@H]2CO1`, under 0.05 µM.

`COc1cc2c(Nc3ccc(Cl)c(Cl)c3)ncnc2cc1OCC1CN(C(C)C(C)=O)CCO1` (configuration not stated) returned an IC50 of under 0.05 µM. In the case of `COc1cc2c(Nc3ccc(Cl)c(Cl)c3)ncnc2cc1OCC1CN(C(C)=O)CCO1` (configuration not stated), the 50% inhibitory concentration (IC50) is under 0.05 µM.

For the compound `COc1cc2c(Nc3ccc(Cl)c(Cl)c3)ncnc2cc1OCc1csc(C2CCCCN2C)n1` (configuration not stated), the IC50 is under 0.05 µM. The compound `CCN1CCC(c2nc(COc3cc4ncnc(Nc5ccc(Cl)c(Cl)c5)c4cc3OC)cs2)CC1` registered an IC50 of under 0.05 µM.

`COc1cc2c(Nc3ccc(Cl)c(Cl)c3)ncnc2cc1OCCC1OCCO1` gave an IC50 of under 0.05 µM. `CCC(CC)CN1CCCOC(COc2cc3ncnc(Nc4ccc(Cl)c(Cl)c4)c3cc2OC)C1` (configuration not stated) returned an IC50 of under 0.05 µM. `COc1cc2c(Nc3ccc(Cl)c(Cl)c3)ncnc2cc1OCc1nc2c(s1)CNCC2`: the IC50 was under 0.05 µM. On to `COc1cc2c(Nc3ccc(Cl)c(Cl)c3)ncnc2cc1OCc1noc(-c2ccccc2)n1`, for which the IC50 was under 0.05 µM. For `CCO[C@H]1CO[C@H]2[C@@H]1OC[C@@H]2Oc1cc2ncnc(Nc3ccc(Br)c(Cl)c3)c2cc1OC` the value was under 0.05 µM.

In the case of `COc1cc2c(Nc3ccc(Cl)c(Cl)c3)ncnc2cc1OCc1nc(N2CCNCC2)no1`, the IC50 was under 0.05 µM. Under `COc1cc2c(Nc3cccc(Cl)c3)ncnc2cc1O[C@@H]1CO[C@@H]2[C@H]1OC[C@H]2F` stands under 0.05 µM.

Compound `COc1cc2c(Nc3ccc(Cl)c(Cl)c3)ncnc2cc1OCc1ccc2nc(C(F)(F)F)cc(Cl)c2c1` showed an IC50 of 0.05 to 1 µM. Under `COc1cc2c(Nc3ccc(Cl)c(Cl)c3)ncnc2cc1OCC1CN(CCOCCO)CCO1` (configuration not stated) stands under 0.05 µM; under `COc1cc2c(Nc3ccc(F)c(F)c3F)ncnc2cc1O[C@@H]1CO[C@@H]2[C@H]1OC[C@H]2F`, under 0.05 µM; under `COc1cc2c(Nc3ccc(Cl)c(Cl)c3)ncnc2cc1OCc1nc(N2CCN(C)CC2)no1`, under 0.05 µM. For `COc1cc2c(Nc3ccc(Cl)c(Cl)c3)ncnc2cc1OCC1CN(Cc2ccccn2)CCO1` (configuration not stated) the value was under 0.05 µM; for `CCN1CCCC1c1nc(COc2cc3ncnc(Nc4ccc(Cl)c(Cl)c4)c3cc2OC)no1` (configuration not stated), under 0.05 µM. For `COc1cc2c(Nc3c(F)cc(F)cc3Br)ncnc2cc1O[C@@H]1CO[C@@H]2[C@H]1OC[C@H]2F` the value was under 0.05 µM.

In turn, `COc1cc2c(Nc3ccc(Cl)c(Cl)c3)ncnc2cc1OCC1CC2CCC(C1)N2C` (configuration not stated) came in with an IC50 of under 0.05 µM. Under `COc1cc2c(Nc3ccc(C)c(Cl)c3Cl)ncnc2cc1OCC1CN(C)CCO1` (configuration not stated) stands under 0.05 µM. `COc1cc2c(Nc3cccc(Cl)c3C)ncnc2cc1O[C@@H]1CO[C@@H]2[C@H]1OC[C@H]2F` came in with an IC50 of under 0.05 µM.

`COc1cc2c(Nc3ccc(Cl)c(Cl)c3)ncnc2cc1OCC1CN(S(C)(=O)=O)CCO1` (configuration not stated): the IC50 was under 0.05 µM.

In turn, `COc1cc2c(Nc3cc(Cl)c(Cl)cc3F)ncnc2cc1OC[C@@H]1CN2CCC[C@H]2CO1` had an IC50 of under 0.05 µM. For `CCN1CCCOC(COc2cc3ncnc(Nc4ccc(Cl)c(Cl)c4)c3cc2OC)C1` (configuration not stated) the value was under 0.05 µM; for `COc1cc2c(Nc3ccc(Cl)c(Cl)c3)ncnc2cc1OC1CC2CCC(C1)N2C` (configuration not stated), under 0.05 µM; for `COc1cc2c(Nc3ccc(Br)c(Cl)c3Cl)ncnc2cc1OC[C@@H]1CO[C@H]2[C@@H]1OC[C@@H]2O`, under 0.05 µM. For `COc1cc2c(Nc3ccc(Cl)c(Cl)c3)ncnc2cc1OCC1CN(C(C)=N)CCCO1` (configuration not stated) the value was under 0.05 µM; for `COc1cc2c(Nc3ccc(Cl)cc3Cl)ncnc2cc1OCC1CN(C)CCO1` (configuration not stated), under 0.05 µM. Under `COC(=O)CCC(=O)N1CCOC(COc2cc3ncnc(Nc4ccc(Cl)c(Cl)c4)c3cc2OC)C1` (configuration not stated) stands under 0.05 µM; under `COc1cc2c(Nc3ccc(Br)c(Cl)c3)ncnc2cc1O[C@H]1CO[C@H]2[C@@H]1OC[C@@]21COC(C)(C)O1`, under 0.05 µM; under `COc1cc2c(Nc3cc(Cl)ccc3F)ncnc2cc1O[C@@H]1CO[C@@H]2[C@H]1OC[C@H]2F`, under 0.05 µM. With `COc1cc2c(Nc3cc(Cl)c(Br)cc3F)ncnc2cc1OCC1CO[C@@H]2[C@@H](OC)CO[C@H]12` (some centres not stated), the IC50 is under 0.05 µM.

For the compound `COc1cc2c(Nc3ccc(F)cc3Br)ncnc2cc1O[C@@H]1CO[C@@H]2[C@H]1OC[C@H]2F`, the IC50 was under 0.05 µM. For the compound `COc1cc2c(Nc3ccc(Br)c(Cl)c3F)ncnc2cc1O[C@H]1CO[C@H]2[C@@H]1OC[C@@H]2OC`, the half-inhibitory concentration (IC50) was under 0.05 µM. In the case of `CCCCC(CC)C(=O)N1CCOC(COc2cc3ncnc(Nc4ccc(Cl)c(Cl)c4)c3cc2OC)C1` (configuration not stated), the IC50 is under 0.05 µM. Under `COc1cc2c(Nc3ccc(Cl)c(Cl)c3F)ncnc2cc1OCC1CN(C)CCO1` (configuration not stated) stands under 0.05 µM. For `COc1cc2c(Nc3cc(Cl)ccc3Cl)ncnc2cc1O[C@@H]1CO[C@@H]2[C@H]1OC[C@H]2F` the value was under 0.05 µM; for `COc1cc2c(Nc3ccc(F)c(Cl)c3)ncnc2cc1O[C@@H]1CO[C@@H]2[C@H]1OC[C@H]2F`, under 0.05 µM. The compound `COc1cc2c(Nc3ccc(Cl)c(Cl)c3)ncnc2cc1OCC1CN(Cc2ccc(F)cc2)CCO1` (configuration not stated) returned an IC50 of under 0.05 µM. Under `COC(=O)CCCCN1CCOC(COc2cc3ncnc(Nc4ccc(Cl)c(Cl)c4)c3cc2OC)C1` (configuration not stated) stands under 0.05 µM; under `COc1cc2c(Nc3ccc(Cl)c(Cl)c3)ncnc2cc1OCCN1CCCC1`, under 0.05 µM. For `COc1cc2c(Nc3ccc(Cl)c(Cl)c3)ncnc2cc1OCc1nc(N2CCN(C(=O)OC(C)(C)C)CC2)no1` the value was under 0.05 µM; for `COc1cc2c(Nc3ccc(Cl)c(Cl)c3)ncnc2cc1OCC1CN(C/C=C/Br)CCO1` (configuration not stated), under 0.05 µM; for `COc1cc2c(Nc3cc(F)c(Br)c(F)c3)ncnc2cc1OCC1CN(C)CCO1` (configuration not stated), under 0.05 µM. Under `CCN1CCC(c2nc(COc3cc4ncnc(Nc5ccc(Cl)c(Cl)c5)c4cc3OC)no2)CC1` stands under 0.05 µM; under `COc1cc2c(Nc3cc(Cl)c(Cl)cc3F)ncnc2cc1OCC1CN(C)C(C)(C)CO1` (configuration not stated), under 0.05 µM. In turn, `COc1cc2c(Nc3ccc(Cl)c(Cl)c3)ncnc2cc1OCc1noc(C2CCN(C(=O)OC(C)(C)C)CC2)n1` returned an IC50 of under 0.05 µM.

With `CCCCN1CCOC(COc2cc3ncnc(Nc4ccc(Cl)c(Cl)c4)c3cc2OC)C1` (configuration not stated), the IC50 was under 0.05 µM. Under `COc1cc2c(Nc3ccc(Cl)c(Cl)c3F)ncnc2cc1OC[C@H]1CN2CCOC[C@H]2CO1` stands under 0.05 µM. For `COc1cc2c(Nc3ccc(Cl)c(Cl)c3)ncnc2cc1OCc1csc(-c2ccc(C(F)(F)F)cc2)n1` the value was 0.05 to 1 µM. Under `COc1cc2c(Nc3ccc(Cl)c(Cl)c3)ncnc2cc1OCC1CCCCC1` stands under 0.05 µM.
